# Experimental data as given in patent US7371766B2, “Curcumin analogs with anti-tumor and anti-angiogenic properties” (Emory University, priority 1999, dated 2008).
# Tests used:
# [1] = system: Vascular Endothelial Growth Factor (VEGF) production by human melanoma cell line RPMI-7951; experiment: VEGF ELISA, RPMI-7951; settings: RPMI-7951
# RPMI-7951 human melanoma = experiment: Neutral Red Assay, cell viability, RPMI-7951; settings: RPMI-7951, DMSO = 100
# [2] = system: Vascular Endothelial Growth Factor (VEGF) production by human prostate cancer cell line DU-145; experiment: VEGF ELISA, DU-145; type: cell-based; settings: for VEGF (% of DMSO): DMSO = 100%
# [3] = system: Vascular Endothelial Growth Factor (VEGF) production by human prostate cancer cell line PC-3; experiment: VEGF ELISA, PC-3; type: cell-based; settings: for VEGF (% of DMSO): DMSO = 100%
# [4] = system: Tissue Factor (TF) production by human melanoma cell line RPMI-7951; experiment: TF ELISA, RPMI-7951; type: cell-based
# Procedure: IMUBIND Tissue Factor ELISA Kit (American Diagnostica Inc, Greenwich, Conn.) was used to determine TF concentration in each sample. The ELISA was carried out according to manufacturer's procedure.
# [5] = 20 μM, mean of triplicate and S.D., DMSO 18760 ± 2633
# [6] = Table 4, 20 μM, mean of triplicate and S.D.
# [7] = 20 μM, mean of triplicate and S.D., DMSO 2103 ± 100
# [8] = Table 5, 20 μM, DMSO control 7054
# [9] = 5 μM, DMSO control 4197 (EF-25: 1045)
# [10] = Table 5, 5 μM, DMSO control 7054
Compound,"VEGF ([1]; 20 μM, DMSO = 100) [%]",Cell Viability (RPMI-7951 human melanoma; 20 μM) [%],VEGF (% of DMSO) ([2]; 20 μM),"VEGF [2, 5] [pg/mL]","VEGF ([2]; Table 4, 20 μM, DMSO = 100) [%]","VEGF [2, 6] [pg/mL]",VEGF (% of DMSO) ([3]; 20 μM),"VEGF [3, 7] [pg/mL]","VEGF ([3]; Table 4, 20 μM, DMSO = 100) [%]","VEGF [3, 6] [pg/mL]","TF ([4]; 20 μM, DMSO = 100) [%]","TF [4, 8] [pg/mL]","VEGF ([1]; 5 μM, DMSO = 100) [%]","VEGF [1, 9] [pg/mL]","VEGF ([1]; 20 μM, DMSO control 4197) [pg/mL]",Cell Viability (RPMI-7951 human melanoma; 5 μM) [%],"TF ([4]; 5 μM, DMSO = 100) [%]","TF [4, 10] [pg/mL]"
"[O-][S+](/C=C\c1ccccc1)/C=C/c1ccccc1 (racemic) [EF14, E,Z3,5-Bisbenzylidenesulfoxide]",36,86,,,,,,,,,,,,,,,,
COc1ccc(CCC(=O)CCc2ccc(OC)c(OC)c2)cc1OC [A],,,(142%),26565 ± 9818,142,26565 ± 9818,(82%),1729 ± 59,82,1729 ± 59,,,,,,,,
COc1ccc(CCC(=O)CCc2ccc(OC)cc2)cc1 [BA-1],,,,,,,,,,,95,6669,,,,,,
COc1ccc(C=CC(=O)c2ccccc2)cc1OC [BA-3],48,102,,,,,,,,,30,2088,116,4860,2035,93,,
COc1ccc(C=CC(=O)C=Cc2ccc(OC)cc2)cc1 [BA-4],80,84,,,,,,,,,30,2120,112,4708,3348,90,100,7043
COc1ccccc1C1CC(=O)CC(c2ccccc2OC)O1 (stereo not shown) [BA-8],,,(218%),40883 ± 6639,218,40883 ± 6639,(78%),1648 ± 229,78,1648 ± 229,,,,,,,,
COc1ccc(CCC(O)CCc2ccc(OC)c(OC)c2)cc1OC [B],,,(82%),15321 ± 5607,82,15321 ± 5607,(99%),2168 ± 279,103,2168 ± 279,,,,,,,,
COc1ccc(CC2CCCC(Cc3ccc(OC)c(OC)c3)C2=O)cc1OC (stereo not shown) [C],,,(110%),20559 ± 9224,110,20559 ± 9224,(82%),1734 ± 397,82,1734 ± 397,,,,,,,,
COc1cc(CC2CCCC(Cc3ccc(O)c(OC)c3)C2O)ccc1O (stereo not shown) [Compound A231L],25,77,,,149,27927 ± 4466,,,80,1687 ± 250,,,,,,,,
COc1cc(CC2CCCC(Cc3ccc(O)c(OC)c3)C2=O)ccc1O (stereo not shown) [Compound A231U],34,80,(149%),27875 ± 4446,149,27875 ± 4446,(47%),984 ± 349,47,984 ± 349,85,5981,,,,,78,5473
COc1cc(CCC(=O)CC(=O)CCc2ccc(O)c(OC)c2)ccc1O [Compound A232],40,78,,,135,25308 ± 4722,,,93,1955 ± 437,,,,,,,,
COc1ccc(C=CC(O)CCc2ccc(OC)c(OC)c2)cc1OC (stereo not shown) [Compound A239],40,86,,,145,27229 ± 2148,,,80,1678 ± 293,,,,,,,,
O=C(NCc1ccccc1)NCc1ccccc1 [Compound A271a],,,(129%),24190 ± 2160,129,24190 ± 2160,(57%),1196 ± 438,57,1196 ± 438,,,,,,,,
